Results reported in patent US10093664B2, “Bicyclo[1.1.1]pentane inhibitors of dual leucine zipper (DLK) kinase for the treatment of disease” (priority 2016, dated 2018).

Columns and labels:
human DLK [1] = biological target: T1, human DLK (Homo sapiens (Human), UniProt Q12852); assay: biochemical; type: binding; conditions: Table 2b DLK activity (global); read-out: Kd
Method: The DLK dissociation constants (Kd) have been determined in the KINOMEscan KdELECT Service at DiscoveRx.
A fusion protein of full length of human DLK (amino acids 1-859) and the DNA binding domain of NFkB was expressed in transiently transfected HEK293 cells. From these HEK 293 cells, extracts were prepared in M-PER extraction buffer (Pierce) in the presence of Protease Inhibitor Cocktail Complete (Roche) and Phosphatase Inhibitor Cocktail Set II (Merck) per manufacturers' instructions. The DLK fusion protein was labeled with a chimeric double-stranded DNA tag containing the NFkB binding site (5′-[sequence]-3′) fused to an amplicon for qPCR readout, which was added directly to the expression extract (the final concentration of DNA-tag in the binding reaction is 0.1 nM).
The liganded beads were blocked with excess biotin and washed with blocking buffer (SeaBlock (Pierce), 1% BSA, 0.05% Tween 20, 1 mM DTT) to remove unbound ligand and to reduce nonspecific binding.
Extracts were used directly in binding assays without any enzyme purification steps at a ≥10,000-fold overall stock dilution (final DNA-tagged enzyme concentration <0.1 nM). Extracts were loaded with DNA-tag and diluted into the binding reaction in a two step process. First extracts were diluted 1:100 in 1× binding buffer (PBS/0.05% Tween 20/10 mM DTT/0.1% BSA/2 μg/ml sonicated salmon sperm DNA) containing 10 nM DNA-tag. This dilution was allowed to equilibrate at room temperature for 15 minutes and then subsequently diluted 1:100 in 1× binding buffer. Test compounds were prepared as 111× stocks in 100% DMSO. Kds were determined using an 11-point 3-fold compound dilution series with three DMSO control points. […] The compounds were then diluted directly into the assays such that the final concentration of DMSO was 0.9%. All reactions performed in polypropylene 384-well plates. Each was a final volume of 0.02 mL. Assays were incubated with shaking for 1 hour at room temperature. Then the beads were pelleted and washed with wash buffer (1×PBS, 0.05% Tween 20) to remove displaced kinase and test compound. […] The kinase concentration in the eluates was measured by qPCR. qPCR reactions were assembled by adding 2.5 μL of kinase eluate to 7.5 μL of qPCR master mix containing 0.15 μM amplicon primers and 0.15 μM amplicon probe. The qPCR protocol consisted of a 10 minute hot start at 95° C., followed by 35 cycles of 95° C. for 15 seconds, 60° C. for 1 minute.
Test compounds were prepared as 11× stocks in 100% DMSO. Kds were determined using an 11-point 3-fold compound dilution series with three DMSO control points. […] The compounds were then diluted directly into the assays such that the final concentration of DMSO was 0.9%. The Kds were determined using a compound top concentration of 30,000 nM. Kd measurements were performed in duplicate.
Binding constants (Kds) were calculated with a standard dose-response curve using the Hill equation:
The Hill Slope was set to −1.

human DLK [2] = biological target: T1, human DLK; assay: cell-based; conditions: Table 2b (global); additional assay runs on multiple batches, includes Table 2a data in the averaging; p-cJun (Ser63), HEK293; read-out: Cell IC50
Method: HEK293 cells stably transfected with a Dox-inducible human DLK were plated into a 384-well plate in 20 μl (40,000 cells/well) of DMEM medium (without phenol red) containing 10% fetal bovine serum, 1.5 μg/ml doxycycline and 1 μg/ml puromycin. The cells as negative control were grown in the absence of doxycycline. The plate was incubated at 37° C., 5% CO2 for 20 h, before DMSO (control) or compounds diluted in medium were added. The cells were incubated at 37° C. for an additional 5 h, followed by lysis and the addition detection antibodies from p-cJun (Ser63) cellular assay kit (Cisbio) per manufacturer protocol. The standard dose response curves were fitted by Genedata Screener software using the variable-slope model: Signal=Signalnegative control+(SignalDMSO control−Signalnegative control)/(1+(IC50/Dose)^Hill slope). Only signal and dose in the equation were treated as known values.

Row | SMILES | Kd (human DLK [1]) [nM] | IC50 (human DLK [2]) [nM]
1 | CC(C)c1nc(-c2cnc(N)c(C(F)(F)F)c2)cn1C12CC(C1)C2 [Example 52, 5-(1-(bicyclo[1.1.1]pentan-1-yl)-2-isopropyl-1H-imidazol-4-yl)-3-(trifluoromethyl)pyridin-2-amine] | 49 | 850
2 | c1cc2ncc(-c3cn(C45CC(N6CCOCC6)(C4)C5)c(C4CC4)n3)cc2[nH]1 [Example 20, 4-(3-(2-cyclopropyl-4-(1H-pyrrolo[3,2-b]pyridin-6-yl)-1H-imidazol-1-yl)bicyclo[1.1.1]pentan-1-yl)morpholine] | 7500 | 12000
3 | Nc1ncc(-c2cn(C34CC(N5CCOCC5)(C3)C4)c(C(O)C(F)(F)F)n2)cc1C(F)(F)F (single isomer, unassigned) [Example 69a, 1-(4-(6-amino-5-(trifluoromethyl)pyridin-3-yl)-1-(3-morpholinobicyclo[1.1.1]pentan-1-yl)-1H-imidazol-2-yl)-2,2,2-trifluoroethan-1-ol] | 0.36 | 36.7
